From paper PMC3069034, “Structuring Detergents for Extracting and Stabilizing Functional Membrane Proteins” (PLoS ONE, 2011)

Target: BmrA (Bacillus subtilis, UniProt O06967)
Assay: intrinsic tryptophan fluorescence quenching of purified protein
Format: binding
From the text: intrinsic tryptophan fluorescence quenching of purified protein on BmrA | the binding of daunorubicin was similar for both detergents.

BmrA, sequence (O06967 whole entry): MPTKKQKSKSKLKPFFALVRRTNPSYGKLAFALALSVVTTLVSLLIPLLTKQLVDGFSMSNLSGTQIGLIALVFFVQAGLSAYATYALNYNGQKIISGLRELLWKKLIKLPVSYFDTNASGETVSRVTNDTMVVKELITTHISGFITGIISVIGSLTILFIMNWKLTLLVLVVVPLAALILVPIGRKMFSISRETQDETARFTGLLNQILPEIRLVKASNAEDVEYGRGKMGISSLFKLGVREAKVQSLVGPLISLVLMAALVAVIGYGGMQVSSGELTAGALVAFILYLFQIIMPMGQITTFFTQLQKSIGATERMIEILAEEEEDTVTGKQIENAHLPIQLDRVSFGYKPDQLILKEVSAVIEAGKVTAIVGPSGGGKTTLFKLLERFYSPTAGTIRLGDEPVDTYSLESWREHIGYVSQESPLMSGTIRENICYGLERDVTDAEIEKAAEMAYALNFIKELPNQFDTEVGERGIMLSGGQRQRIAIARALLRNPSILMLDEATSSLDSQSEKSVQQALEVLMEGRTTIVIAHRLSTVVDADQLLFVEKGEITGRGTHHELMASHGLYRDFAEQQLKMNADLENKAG

Question: With `COc1cccc2c1C(=O)c1c(O)c3c(c(O)c1C2=O)C[C@@](O)(C(C)=O)C[C@@H]3O[C@H]1C[C@H](N)[C@H](O)[C@H](C)O1` [daunorubicin] as the compound, how does the Kd read?
Answer: 12.4 ± 0.8 µM
